We go through two molecules from PMC8467136, “Enabling Efficient Folding and High-Resolution Crystallographic Analysis of Bracelet Cyclotides” (Molecules, 2021).

The test system of data set [1] is POPC/POPE (80:20) model membrane. In words: Membrane binding to POPC/POPE lipid bilayers by surface plasmon resonance (SPR). As to conditions: BIAcore T200, L1 chip, POPC/POPE (80:20) bilayer, 10 mM HEPES, 150 mM NaCl; for P/L Max, peptide-to-lipid maximum binding value: pH 7.4, injection 180 s, dissociation 600 s, nonlinear regression; for Kd: pH 7.4, nonlinear regression, read-out: KD, peptide concentration required to achieve half-maximum binding at equilibrium. From the text: Cyclotides are reported to exert their biological activities via membrane binding, particularly by selective binding to lipids containing phosphatidylethanolamine (PE) headgroups. Therefore, to evaluate the functional impact of the single mutation on bracelet cyclotides, the membrane-binding ability of these variants towards PE-containing lipid bilayers was examined using surface plasmon resonance (SPR). The model membrane comprising 80% 1-palmitoyloleoyl-phosphatidylcholine (POPC) and 20% 1-palmitoyloleoyl-phosphatidylethanolamine (POPE) was used. Binding affinity was evaluated by the peptide-to-lipid maximum binding value (P/L max, mol/mol) and the peptide concentration required to achieve half-maximum binding at equilibrium (KD value, μM). […] The negative effect of the [I11G] bracelet cyclotide mutation on lipid binding was expected, as the mutation reduces surface hydrophobicity, a previously reported determinant of membrane binding. The SPR dose-response curves and sensorgrams are shown in Figure S4 in Supplementary Material.
The binding affinity of bracelet cyclotides and their variants toward lipid bilayers was studied using SPR, as described previously. Two synthetic lipids, 1-palmitoyl-2-oleoyl-glycero-3-phosphocholine (POPC) and 1-palmitoyl-2-oleoyl-sn-glycero-3-phosphoethanolamine (POPE), were purchased from Avanti Polar Lipids (USA). Briefly, homogenous, small, unilamellar vesicles composed of POPC/POPE (80:20, mol/mol) were obtained by extruding the vesicle suspension through a 50-nm pore size polycarbonate membrane. L1 sensor chips and BIAcore T200 instrument were used (Cytiva, Marlborough, MA, USA). After the lipid was loaded and formed a bilayer membrane on the L1 chip, peptide solutions were injected over the lipid surface for 180 s and the dissociation was monitored for 600 s. Peptides were tested at concentrations ranging from 4–32 μM. Peptide-to-lipid molar ratio and KD values were calculated by nonlinear regression using GraphPad Prism software (version 8.3.1). Peptide solutions and lipid vesicles were prepared in HEPES buffer (10 mM HEPES, 150 mM NaCl, pH 7.4, filtered) for SPR studies.

The test system of another data set is HeLa cells. The data set can be described thus: Cytotoxicity against HeLa cells, resazurin assay. Format: cell-based. As to conditions: 5000 cells/well, 24-h incubation with peptide, then resazurin 18 h, triplicate, mean ± SEM. Here is the method:
To further confirm the activity of these mutants, their cytotoxicity against HeLa cancer cells was evaluated along with wild-type bracelet cyclotides. […] Of the four [I11G] mutants, the hyen D analogue had the highest activity, possibly because hyen D has one more hydrophobic residue in loop 3 compared to the other three cyclotides, which may contribute to its higher lipid-binding capacity (P/L max = 0.37) and help offset the hydrophobicity loss caused by the [I11G] mutation.
The cytotoxicity of the peptides was evaluated using the resazurin assay, as described previously. HeLa cells were seeded at 5000 cells/well in a 96-well, flat-bottomed plate one day prior to the experiments. Peptide solutions were prepared in water and incubated with HeLa cells at concentrations ranging from 16 to 0.125 μM or 8 to 0.063 μM in triplicate (final concentrations). Water and 1% Triton X-100 (TX) were applied as negative and positive control, respectively. After 24-h incubation, 10 μL of resazurin (0.05%, w/v) was added and incubated with cells for another 18 h. The absorbance was measured at 540 and 620 nm on a microplate reader (Infinite M1000 Pro microplate reader, Tecan, Switzerland). The percentage of cell death was quantified by calculating the absorbance ratio, R (R = absorbance at 620/540), and applying the following equation: % Cell death = (Rsample − RH2O)/(RTX − RH2O) × 100. Data were analyzed with GraphPad Prism software (version 8.3.1) using Specific binding with Hill slope algorithm.
In general terms: Resazurin is reduced to fluorescent resorufin, in cell work by metabolically active cells.

Bridge positions count the residues as written; N and C are the ends. Peptide text beside a SMILES is read from it.

On to `CC[C@H](C)[C@@H]1NC(=O)[C@H](C)NC(=O)[C@H](CO)NC(=O)[C@H](CO)NC(=O)[C@H]([C@@H](C)CC)NC(=O)[C@@H]2CSSC[C@@H]3NC(=O)[C@H](C(C)C)NC(=O)[C@H](CCCCN)NC(=O)[C@H](CO)NC(=O)[C@H](CCCCN)NC(=O)[C@@H]4CSSC[C@H](NC(=O)[C@H](CO)NC(=O)[C@H](CCC(=O)O)NC(=O)CNC(=O)[C@H](CSSC[C@H](NC(=O)CNC1=O)C(=O)N[C@@H](CO)C(=O)N4)NC(=O)[C@@H]1CCCN1C(=O)[C@H]([C@@H](C)CC)NC(=O)CNC(=O)[C@H](CC(N)=O)NC(=O)[C@H](CCCNC(=N)N)NC(=O)[C@H](Cc1ccc(O)cc1)NC3=O)C(=O)N[C@@H](C(C)C)C(=O)N[C@@H](Cc1c[nH]c3ccccc13)C(=O)N[C@@H]([C@@H](C)CC)C(=O)N1CCC[C@H]1C(=O)N2` [cyO2, cycloviolacin O2, reference compound] (cyclo(AIGCSCKSKVCYRNGIPCGESCVWIPCISS); disulfide 4-18, 6-22, 11-27), for which, in data set [1], the “P/L Max, peptide-to-lipid maximum binding value” was found to be 0.28 ± 0.00 mol/mol and the Kd worked out at 3.9 ± 0.11 µM. Moreover, in the data set on HeLa cells, the “CC50 on HeLa (half maximum cytotoxic concentration)” value stood at 1.05 ± 0.06 µM.

In the case of `CC[C@H](C)[C@@H]1NC(=O)[C@@H]2CSSC[C@@H]3NC(=O)[C@H](C(C)C)NC(=O)[C@H](CCCCN)NC(=O)[C@H](CC(=O)O)NC(=O)[C@H]([C@@H](C)O)NC(=O)[C@@H]4CSSC[C@H](NC(=O)[C@H](CO)NC(=O)[C@H](CCC(=O)O)NC(=O)CNC(=O)[C@H](CSSC[C@H](NC(=O)CNC(=O)[C@H]([C@@H](C)CC)NC(=O)[C@H](C(C)C)NC(=O)CNC(=O)[C@H](CO)NC1=O)C(=O)N[C@@H](CO)C(=O)N4)NC(=O)[C@@H]1CCCN1C(=O)[C@H]([C@@H](C)O)NC(=O)CNC(=O)[C@H](CC(N)=O)NC(=O)[C@H](CC(C)C)NC(=O)[C@H](Cc1ccc(O)cc1)NC3=O)C(=O)N[C@@H](C(C)C)C(=O)N[C@@H](Cc1ccc(O)cc1)C(=O)N[C@@H]([C@@H](C)CC)C(=O)N1CCC[C@H]1C(=O)N2` [kB5, kalata B5, reference compound] (cyclo(CGESCVYIPCISGVIGCSCTDKVCYLNGTP); disulfide 1-17, 5-19, 10-24), in data set [1], the “P/L Max, peptide-to-lipid maximum binding value” was found to be 0.22 ± 0.00 mol/mol and the Kd was determined as 5.02 ± 0.17 µM. In addition, the “CC50 on HeLa (half maximum cytotoxic concentration)” value in the data set on HeLa cells worked out at 3.11 ± 0.20 µM.
